Source: patent publication US20230085307A1, “PYRIDAZINONE COMPOUND AND HERBICIDE” (NISSAN CHEMICAL CORPORATION, priority 2019, published 2023)

How the values were obtained:
late watergrass = experiment: Test Example 1: herbicidal activity, application before weed generation under submerged conditions (Table 16, symbol A); assay type: in vivo, late watergrass (Echinochloa oryzicola); details: amount of applied herbicide 320 g/ha
How it was run: (§1)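 Emulsion formulation, water-diluted to set dose, was put onto the flooded surface (4 cm depth, alluvial soil) the same day weeds were sown and 2.5-leaf rice transplanted. After 3 weeks at 25-30 °C under glass, each species was rated 0 (≤5% kill) to 5 (≥90% kill).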

Japanese bulrush = experiment: Test Example 1: herbicidal activity, application before weed generation under submerged conditions (Table 16, symbol B); assay type: in vivo, Japanese bulrush (Schoenoplectus juncoides); details: amount of applied herbicide 320 g/ha
How it was run: as §1

oval-leafed pondweed = experiment: Test Example 1: herbicidal activity, application before weed generation under submerged conditions (Table 16, symbol C); assay type: in vivo, oval-leafed pondweed (Monochoria vaginalis); details: amount of applied herbicide 320 g/ha
How it was run: as §1

barnyard grass [1] = experiment: Test Example 3: herbicidal effect by foliage application, Wagner pot (Table 18, symbol H); assay type: in vivo, barnyard grass (Echinochloa crus-galli); details: 320 g/ha
How it was run: (§2)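 Plants were sown in alluvial soil held under 0.1–0.5 cm standing water and grown 14 days in a greenhouse at 25–30 °C. An emulsifiable formulation, water-diluted to the set dose, was then sprayed onto the foliage, and effects were scored three weeks later using previously defined criteria.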

Chinese sprangletop = experiment: Test Example 3: herbicidal effect by foliage application, Wagner pot (Table 18, symbol D); assay type: in vivo, chinese sprangletop (Leptochloa chinensis); details: 320 g/ha
How it was run: as §2

rice flat sedge = experiment: Test Example 3: herbicidal effect by foliage application, Wagner pot (Table 18, symbol E); assay type: in vivo, rice flat sedge (Cyperus iria); details: 320 g/ha
How it was run: as §2

southern crabgrass [2] = experiment: Test Example 4: herbicidal effect by soil treatment (Table 19, symbol F); assay type: in vivo, southern crabgrass (Digitaria ciliaris); details: amount of applied herbicide 320 g/ha
How it was run: (§3)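 Step 1: sow seeds in sterilized diluvial soil, cover ~1.5 cm. Step 2: spray diluted emulsion onto soil surface at predetermined rate. Step 3: greenhouse, 25–30° C, three weeks. Step 4: grade effect on each plant by earlier criteria.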

green foxtail [3] = experiment: Test Example 4: herbicidal effect by soil treatment (Table 19, symbol G); assay type: in vivo, green foxtail (Setaria viridis); details: amount of applied herbicide 320 g/ha
How it was run: as §3

barnyard grass [4] = experiment: Test Example 4: herbicidal effect by soil treatment (Table 19, symbol H); assay type: in vivo, barnyard grass (Echinochloa crus-galli); details: amount of applied herbicide 320 g/ha
How it was run: as §3

wild oat [5] = experiment: Test Example 4: herbicidal effect by soil treatment (Table 19, symbol I); assay type: in vivo, wild oat (Avena fatua); details: amount of applied herbicide 320 g/ha
How it was run: as §3

blackgrass [6] = experiment: Test Example 4: herbicidal effect by soil treatment (Table 19, symbol J); assay type: in vivo, blackgrass (Alopecurus myosuroides); details: amount of applied herbicide 320 g/ha
How it was run: as §3

Italian ryegrass [7] = experiment: Test Example 4: herbicidal effect by soil treatment (Table 19, symbol K); assay type: in vivo, Italian ryegrass (Lolium multiflorum); details: amount of applied herbicide 320 g/ha
How it was run: as §3

windgrass [8] = experiment: Test Example 4: herbicidal effect by soil treatment (Table 19, symbol L); assay type: in vivo, windgrass (Apera spica-venti); details: amount of applied herbicide 320 g/ha
How it was run: as §3

velvetleaf [9] = experiment: Test Example 4: herbicidal effect by soil treatment (Table 19, symbol M); assay type: in vivo, velvetleaf (Abutilon theophrasti); details: amount of applied herbicide 320 g/ha
How it was run: as §3

redroot pigweed [10] = experiment: Test Example 4: herbicidal effect by soil treatment (Table 19, symbol N); assay type: in vivo, redroot pigweed (Amaranthus retroflexus); details: amount of applied herbicide 320 g/ha
How it was run: as §3

lambsquarters [11] = experiment: Test Example 4: herbicidal effect by soil treatment (Table 19, symbol O); assay type: in vivo, lambsquarters (Chenopodium album); details: amount of applied herbicide 320 g/ha
How it was run: as §3

chickweed [12] = experiment: Test Example 4: herbicidal effect by soil treatment (Table 19, symbol P); assay type: in vivo, common chickweed (Stellaria media); details: amount of applied herbicide 320 g/ha
How it was run: as §3

persian speedwell [13] = experiment: Test Example 4: herbicidal effect by soil treatment (Table 19, symbol R); assay type: in vivo, Persian speedwell (Veronica persica); details: amount of applied herbicide 320 g/ha
How it was run: as §3

southern crabgrass [14] = experiment: Test Example 5: herbicidal effect by foliage application, plastic box (Table 20, symbol F); assay type: in vivo, southern crabgrass (Digitaria ciliaris); details: 320 g/ha
How it was run: (§4)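 Foliar spray test: emulsion formulation diluted in water to a set application rate, sprayed onto 14-day-old plants raised in diluvial soil at 25° C to 30° C under glass. Both herbicidal effect and crop effect rated visually three weeks later.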

green foxtail [15] = experiment: Test Example 5: herbicidal effect by foliage application, plastic box (Table 20, symbol G); assay type: in vivo, green foxtail (Setaria viridis); details: 320 g/ha
How it was run: as §4

barnyard grass [16] = experiment: Test Example 5: herbicidal effect by foliage application, plastic box (Table 20, symbol H); assay type: in vivo, barnyard grass (Echinochloa crus-galli); details: 320 g/ha
How it was run: as §4

wild oat [17] = experiment: Test Example 5: herbicidal effect by foliage application, plastic box (Table 20, symbol I); assay type: in vivo, wild oat (Avena fatua); details: 320 g/ha
How it was run: as §4

blackgrass [18] = experiment: Test Example 5: herbicidal effect by foliage application, plastic box (Table 20, symbol J); assay type: in vivo, blackgrass (Alopecurus myosuroides); details: 320 g/ha
How it was run: as §4

Italian ryegrass [19] = experiment: Test Example 5: herbicidal effect by foliage application, plastic box (Table 20, symbol K); assay type: in vivo, Italian ryegrass (Lolium multiflorum); details: 320 g/ha
How it was run: as §4

windgrass [20] = experiment: Test Example 5: herbicidal effect by foliage application, plastic box (Table 20, symbol L); assay type: in vivo, windgrass (Apera spica-venti); details: 320 g/ha
How it was run: as §4

velvetleaf [21] = experiment: Test Example 5: herbicidal effect by foliage application, plastic box (Table 20, symbol M); assay type: in vivo, velvetleaf (Abutilon theophrasti); details: 320 g/ha
How it was run: as §4

redroot pigweed [22] = experiment: Test Example 5: herbicidal effect by foliage application, plastic box (Table 20, symbol N); assay type: in vivo, redroot pigweed (Amaranthus retroflexus); details: 320 g/ha
How it was run: as §4

lambsquarters [23] = experiment: Test Example 5: herbicidal effect by foliage application, plastic box (Table 20, symbol O); assay type: in vivo, lambsquarters (Chenopodium album); details: 320 g/ha
How it was run: as §4

chickweed [24] = experiment: Test Example 5: herbicidal effect by foliage application, plastic box (Table 20, symbol P); assay type: in vivo, common chickweed (Stellaria media); details: 320 g/ha
How it was run: as §4

persian speedwell [25] = experiment: Test Example 5: herbicidal effect by foliage application, plastic box (Table 20, symbol R); assay type: in vivo, Persian speedwell (Veronica persica); details: 320 g/ha
How it was run: as §4

[26] = foliage application, three weeks after application
[27] = foliage application after 14-day growth, evaluated three weeks after application

| SMILES | Herbicidal effect, A: late watergrass (late watergrass) | Herbicidal effect, B: Japanese bulrush (Japanese bulrush) | Herbicidal effect, C: oval-leafed pondweed (oval-leafed pondweed) | herbicidal effect on barnyard grass (H) (barnyard grass [1]) | herbicidal effect on Chinese sprangletop (D) (Chinese sprangletop) | herbicidal effect on rice flat sedge (E) (rice flat sedge) | Herbicidal effect by soil treatment, F: southern crabgrass (southern crabgrass [2]) | Herbicidal effect by soil treatment, G: green foxtail (green foxtail [3]) | Herbicidal effect by soil treatment, H: barnyard grass (barnyard grass [4]) | Herbicidal effect by soil treatment, I: wild oat (wild oat [5]) | Herbicidal effect by soil treatment, J: blackgrass (blackgrass [6]) | Herbicidal effect by soil treatment, K: Italian ryegrass (Italian ryegrass [7]) | Herbicidal effect by soil treatment, L: windgrass (windgrass [8]) | Herbicidal effect by soil treatment, M: velvetleaf (velvetleaf [9]) | Herbicidal effect by soil treatment, N: redroot pigweed (redroot pigweed [10]) | Herbicidal effect by soil treatment, O: lambsquarters (lambsquarters [11]) | Herbicidal effect by soil treatment, P: chickweed (chickweed [12]) | Herbicidal effect by soil treatment, R: persian speedwell (persian speedwell [13]) | other results |
| --- | --- | --- | --- | --- | --- | --- | --- | --- | --- | --- | --- | --- | --- | --- | --- | --- | --- | --- | --- |
| COCc1ccc2c(-c3c(O)c(C)nn(C)c3=O)c(-c3ccccc3OC)sc2c1 [3-137] | 3 (Herbicidal rate of 40% or more and less than 70%) | 0 (Herbicidal rate of 5% or less (almost no effect)) | 0 (Herbicidal rate of 5% or less (almost no effect)) | 3 (Herbicidal rate of 40% or more and less than 70%) | 5 (Herbicidal rate of 90% or more (almost completely withered)) | 5 (Herbicidal rate of 90% or more (almost completely withered)) | 0 (Herbicidal rate of 5% or less (almost no effect)) | 1 (Herbicidal rate of 5% or more and less than 20%) | 5 (Herbicidal rate of 90% or more (almost completely withered)) | 1 (Herbicidal rate of 5% or more and less than 20%) | 0 (Herbicidal rate of 5% or less (almost no effect)) | 1 (Herbicidal rate of 5% or more and less than 20%) | 0 (Herbicidal rate of 5% or less (almost no effect)) | 0 (Herbicidal rate of 5% or less (almost no effect)) | 0 (Herbicidal rate of 5% or less (almost no effect)) | 0 (Herbicidal rate of 5% or less (almost no effect)) | 5 (Herbicidal rate of 90% or more (almost completely withered)) | 4 (Herbicidal rate of 70% or more and less than 90%) | F: southern crabgrass, herbicidal effect grade (southern crabgrass [14]; [26]): 5 (Herbicidal rate of 90% or more (almost completely withered)); G: green foxtail, herbicidal effect grade (green foxtail [15]; [26]): 5 (Herbicidal rate of 90% or more (almost completely withered)); H: barnyard grass, herbicidal effect grade (barnyard grass [16]; [26]): 3 (Herbicidal rate of 40% or more and less than 70%); I: wild oat, herbicidal effect grade (wild oat [17]; [26]): 4 (Herbicidal rate of 70% or more and less than 90%); J: blackgrass, herbicidal effect grade (blackgrass [18]; [26]): 4 (Herbicidal rate of 70% or more and less than 90%); K: Italian ryegrass, herbicidal effect grade (Italian ryegrass [19]; [26]): 4 (Herbicidal rate of 70% or more and less than 90%); L: windgrass, herbicidal effect grade (windgrass [20]; [26]): 4 (Herbicidal rate of 70% or more and less than 90%); M: velvetleaf, herbicidal effect grade (velvetleaf [21]; [26]): 5 (Herbicidal rate of 90% or more (almost completely withered)); N: redroot pigweed, herbicidal effect grade (redroot pigweed [22]; [26]): 1 (Herbicidal rate of 5% or more and less than 20%); O: lambsquarters, herbicidal effect grade (lambsquarters [23]; [26]): 0 (Herbicidal rate of 5% or less (almost no effect)); P: chickweed, herbicidal effect grade (chickweed [24]; [26]): 5 (Herbicidal rate of 90% or more (almost completely withered)); R: persian speedwell, herbicidal effect grade (persian speedwell [25]; [26]): 5 (Herbicidal rate of 90% or more (almost completely withered)) |
| COc1ccccc1-c1sc2c(F)cccc2c1-c1c(O)c(C)nn(C)c1=O [4-003] | 3 (Herbicidal rate of 40% or more and less than 70%) | 0 (Herbicidal rate of 5% or less (almost no effect)) | 0 (Herbicidal rate of 5% or less (almost no effect)) | 3 (Herbicidal rate of 40% or more and less than 70%) | 3 (Herbicidal rate of 40% or more and less than 70%) | 3 (Herbicidal rate of 40% or more and less than 70%) | 0 (Herbicidal rate of 5% or less (almost no effect)) | 0 (Herbicidal rate of 5% or less (almost no effect)) | 0 (Herbicidal rate of 5% or less (almost no effect)) | 0 (Herbicidal rate of 5% or less (almost no effect)) | 0 (Herbicidal rate of 5% or less (almost no effect)) | 0 (Herbicidal rate of 5% or less (almost no effect)) | 0 (Herbicidal rate of 5% or less (almost no effect)) | 0 (Herbicidal rate of 5% or less (almost no effect)) | 4 (Herbicidal rate of 70% or more and less than 90%) | 3 (Herbicidal rate of 40% or more and less than 70%) | 1 (Herbicidal rate of 5% or more and less than 20%) | 1 (Herbicidal rate of 5% or more and less than 20%) | herbicidal effect on F: southern crabgrass (evaluation grade 0-5) (southern crabgrass [14]; [27]): 1 (Herbicidal rate of 5% or more and less than 20%); herbicidal effect on G: green foxtail (evaluation grade 0-5) (green foxtail [15]; [27]): 4 (Herbicidal rate of 70% or more and less than 90%); herbicidal effect on H: barnyard grass (evaluation grade 0-5) (barnyard grass [16]; [27]): 1 (Herbicidal rate of 5% or more and less than 20%); herbicidal effect on I: wild oat (evaluation grade 0-5) (wild oat [17]; [27]): 0 (Herbicidal rate of 5% or less (almost no effect)); herbicidal effect on J: blackgrass (evaluation grade 0-5) (blackgrass [18]; [27]): 4 (Herbicidal rate of 70% or more and less than 90%); herbicidal effect on K: Italian ryegrass (evaluation grade 0-5) (Italian ryegrass [19]; [27]): 4 (Herbicidal rate of 70% or more and less than 90%); herbicidal effect on L: windgrass (evaluation grade 0-5) (windgrass [20]; [27]): 3 (Herbicidal rate of 40% or more and less than 70%); herbicidal effect on M: velvetleaf (evaluation grade 0-5) (velvetleaf [21]; [27]): 3 (Herbicidal rate of 40% or more and less than 70%); herbicidal effect on N: redroot pigweed (evaluation grade 0-5) (redroot pigweed [22]; [27]): 3 (Herbicidal rate of 40% or more and less than 70%); herbicidal effect on O: lambsquarters (evaluation grade 0-5) (lambsquarters [23]; [27]): 3 (Herbicidal rate of 40% or more and less than 70%); herbicidal effect on P: chickweed (evaluation grade 0-5) (chickweed [24]; [27]): 5 (Herbicidal rate of 90% or more (almost completely withered)); herbicidal effect on R: persian speedwell (evaluation grade 0-5) (persian speedwell [25]; [27]): 5 (Herbicidal rate of 90% or more (almost completely withered)) |
